Values joined by “and” are separate entries in the source; they are usually repeats but may differ in a detail not shown here. Identical values can stand only once. “Also recorded” adds a separate entry of the source.
What was measured:
[1] = system: osteoclasts cultured on bone slices; assay: In vitro bone resorption assay (osteoclasts on bovine bone slices, CrossLaps); format: cell-based, rat; conditions: for Relative medium CrossLaps amounts per osteoclast, replicates 1-6 / Relative medium CrossLaps amounts per osteoclast, Mean ± SD: first bone resorption assay; for Relative medium CrossLaps amounts per osteoclast, replicates 1-6 / Relative medium CrossLaps amounts per osteoclast, Mean ± SD / Relative medium CrossLaps amounts per osteoclasts, Mean ± SD / Relative medium CrossLaps amounts per osteoclasts, replicates 1-6: relative to mean of baseline group, 72 hours; for Relative medium CrossLaps amounts per osteoclast, replicates 1-6: LA number = ng/ml lanthanum in culture medium; for Relative medium CrossLaps amounts per osteoclast, replicates 1-6 / Relative medium CrossLaps amounts per osteoclast, Mean ± SD / Relative medium CrossLaps amounts per osteoclasts, Mean ± SD / Relative medium CrossLaps amounts per osteoclasts, replicates 1-6 / Combined results on bone resorption (relative medium CrossLaps per osteoclast), Mean ± SD: Control = Baseline+10 nM bafilomycin Al; for Relative medium CrossLaps amounts per osteoclasts, Mean ± SD / Relative medium CrossLaps amounts per osteoclasts, replicates 1-6: second bone resorption assay; for Combined results on bone resorption (relative medium CrossLaps per osteoclast), Mean ± SD: tables 1 and 2 combined, number 12
Source text: The method of osteoclast culture on bone slices was originally described by Boyde et al. (1984) and by Chambers et al. (1984). For cell culture, we used a method slightly modified from the original methods (Lakkakorpi et al. 1989, Lakkakorpi and Väänänen, 1991). The rate of bone resorption in the cultures was originally determined by counting the number of resorption pits on each bone or dentine slice using a microscope with phase contrast objectives (Sundquist et al. 1990). Later, the pits were visualized using Wheat Germ Agglutinin lectin that specifically binds to the resorbed area in bone (Selander et al. 1994), making it possible to quantify the total resorbed area using a microscope and computer-assisted image analysis system (Laitala and Väänänen 1994, Hentunen et al. 1995). We used a commercially available method (CrossLaps for cultures, Osteometer Biotech, Herlev, Denmark) to detect the amount of collagen cross-links released into the culture medium as an index of the bone resorption rate (Bagger et al., 1999).
The study protocol uses a method where osteoclasts are cultured on bone slices and allowed to resorb bone. The system is ideal for determining the effect of drug candidates on the bone resorbing activity of osteoclasts. Drug candidates are added into the cell cultures at the beginning of the culture period, and the osteoclasts allowed to resorb bone for 3 days. The amount of bone resorbed during the culture period is determined and compared to the amount of bone resorbed in control cultures (those cultured in the absence of drug candidates).
Transverse 0.1 mm thick slices of cortical bone were cut from the diaphysis of fresh bovine femurs (Atria Slaughterhouse, Oulu, Finland) using a low-speed diamond saw, cleaned by ultrasonication in multiple changes of sterile distilled water, and stored at 4° C. before use. Long bones were removed from 1-day-old rat pups killed by decapitation. […] The resulting suspension of dispersed cells and bone fragments was agitated using a plastic pipette. Larger fragments were allowed to sediment for a few seconds and the supernatant was seeded onto the bone slices pre-wetted in the medium. After a settling period of 30 minutes at 37° C., the bone slices were washed by dipping in fresh medium, and then transferred to wells in 24-well culture dishes containing osteoclast culture medium. The bone slices were incubated in a humidified atmosphere of 95% air and 5% carbon dioxide at 37° C. for 72 hours.
After the culture period, the amount of bone resorption was determined by measuring the amount of collagen cross-links released into the culture medium using a commercial kit (CrossLaps for cultures, Osteometer Biotech) according to the manufacturer s instructions. The number of osteoclasts in each culture was determined by microscopic counting of the amount of TRAP-positive multinuclear cells, and the results are given as the number of collagen cross-links released per one osteoclast.
In the bone resorption assay, the amount of medium CrossLaps (nM) released into the culture medium was determined and the number of osteoclasts in the corresponding cultures calculated. The medium CrossLaps amounts were divided with the osteoclast numbers in the corresponding cultures, and the results are given on Table 1 as relative medium CrossLaps amounts per osteoclasts. The relative values were obtained by dividing each individual value with the mean value of the baseline group.

[2] = system: mouse bone marrow derived osteoprogenitor cells; assay: In vitro osteoblast differentiation assay (cellular alkaline phosphatase); format: cell-based; conditions: LA number = ng/ml lanthanum; for Effect on osteoblast differentiation, in words: lanthanum (III) ion = 100-15000 ng/ml, 17-estradiol 10^−10 M; for Relative specific activities of intracellular alkaline phosphatase, Mean ± SD / Relative specific activities of intracellular alkaline phosphatase, replicates 1-8 / Relative specific activities of intracellular alkaline phosphatase, replicates 1-4 / Relative specific activities or intracellular alkaline phosphatase, Mean ± SD / Relative specific activities or intracellular alkaline phosphatase, replicates 1-6: relative to mean of baseline group, 8 days; for Relative specific activities of intracellular alkaline phosphatase, Mean ± SD / Relative specific activities of intracellular alkaline phosphatase, replicates 1-8 / Relative specific activities of intracellular alkaline phosphatase, replicates 1-4 / Relative specific activities or intracellular alkaline phosphatase, Mean ± SD / Relative specific activities or intracellular alkaline phosphatase, replicates 1-6 / Combined results on osteoblast differentiation (relative specific ALP activity), Mean ± SD: Control = Baseline+10^−10 M 17-estradiol; for Relative specific activities or intracellular alkaline phosphatase, Mean ± SD / Relative specific activities or intracellular alkaline phosphatase, replicates 1-6: second osteoblast differentiation assay; for Combined results on osteoblast differentiation (relative specific ALP activity), Mean ± SD: tables 8-10 combined, number 18
Source text: We have established a culture model in which mouse bone marrow derived osteoprogenitor cells first proliferate and then differentiate to osteoblasts capable of forming mineralized bone nodules (Qu et al. 1998, Qu et al. 1999). We confirmed this by following the expression of several markers of the osteoblastic phenotype and by studying the morphology of cultures at light and electron microscopic level. […] Thus, this culture system fulfills requirements of an in vitro model useful for studying differentiation of osteoprogenitor cells into bone synthesizing osteoblasts. […] Animals were killed by cervical dislocation. Both femora were removed and the soft tissues were detached aseptically. Metaphyses from both ends were cut off and bone marrow cells were collected by flushing the diaphysis with culture medium: phenol red-free-α-modified essential medium (α-MEM (Gibco BRL, Paisley, UK)). […] The cells were cultured for 6 days and half of the media […] days. […] Cells were washed with warm PBS and adherent cells were detached using trypsin-EDTA. […] The test substances were added at the beginning of the secondary culture without estrogen, and every time when the medium was changed. The number of osteoblasts formed was determined by measuring cellular alkaline phosphatase (ALP) activity in the culture. […] Louis, Mo., USA), and overnight freezing. ALP activity was determined colorimetrically using p-nitrophenylphosphate as substrate at pH 9.7 and determining the optical density at 405 nm. In parallel, protein contents of the wells were determined by the BIO-RAD protein assay, and the specific ALP activity is expressed as units/mg protein. […] Osteoblast differentiation was determined by measuring cellular alkaline phosphatase (ALP) activities and total protein amounts from cell lysates. The ALP activities were divided with the corresponding protein amounts to obtain specific activities of ALP. The results are shown as relative specific activities obtained by dividing each individual value with the mean value of the baseline group.

[3] = system: mature osteoblasts; assay: In vitro bone formation assay (calcium deposition into bone nodules); format: cell-based, mouse; conditions: LA number = ng/ml lanthanum; for Effect on bone formation activity of mature osteoblasts, in words: lanthanum (III) / lanthanum (III) ion = all concentrations tested, 100 to 15,000 ng/ml, 17-estradiol 10^−10M; for Calcium deposition, Mean ± SD / Calcium deposition, replicates 1-6 / Calcium deposition, replicates 1-4 / Calcium deposition, replicates 1-8: calcium released from bone nodules after HCl extraction; for Calcium deposition, Mean ± SD / Calcium deposition, replicates 1-6 / Calcium deposition, replicates 1-4 / Calcium deposition, replicates 1-8 / Combined results on bone formation activity of mature osteoblasts (calcium released), Mean ± SD: Control = Baseline+10^−10M 17β-estradiol; for Combined results on bone formation activity of mature osteoblasts (calcium released), Mean ± SD: tables 13 and 14 combined, number 14
Procedure: The activity of mature osteoblasts can be determined by quantifying their ability to form mineralized bone matrix. This is done by demineralizing the formed bone matrix, and determining the amount of calcium released. Thus, this culture system fulfills requirements of an in vitro model useful for studying the bone formation activity of mature osteoblasts. […] At the end of the culture, the amount of calcium deposited during the culture period was determined, and the amount of bone formation (calcium deposition) calculated. […] Extracts of 50 μl were complexed with 1 ml determined o-cresol-phthalein-complexon. The colorimetric reaction was determined at 570 nm in a spectrophotometer. Absolute calcium concentrations were determined by comparison with a calibrated standard provided by the vendor. In this study, the effect of lanthanum carbonate on bone formation was tested. […] The amount of bone formation was determined by measuring the amount of calcium deposited into bone nodules formed by mature osteoblasts. The results are shown as the amount of calcium released (mmol/L) from the bone nodules after HCl extraction. The baseline values are too low to show the results using relative amounts as was done in the other assays.

[4] = first osteoblast differentiation assay
[5] = preliminary osteoblast differentiation assay
[6] = preliminary bone formation assay

O.O.O.O.O=C([O-])[O-].O=C([O-])[O-].O=C([O-])[O-].[La+3].[La+3] [LA 100, lanthanum carbonate tetrahydrate]
Relative medium CrossLaps amounts per osteoclast, replicates 1-6 [1]: 0.57 and 0.56 and 1.13 and 0.78 and 0.71 (2×) | Relative medium CrossLaps amounts per osteoclast, Mean ± SD ([1]; LA number = ng/ml lanthanum): 0.74 ± 0.21 | Relative medium CrossLaps amounts per osteoclasts, Mean ± SD ([1]; LA number = ng/ml lanthanum): 0.74 ± 0.21 | Relative medium CrossLaps amounts per osteoclasts, replicates 1-6 ([1]; LA number = ng/ml lanthanum): 0.38 and 0.75 and 0.78 and 0.94 and 0.67 and 0.96 | Combined results on bone resorption (relative medium CrossLaps per osteoclast), Mean ± SD ([1]; LA number = ng/ml lanthanum): 0.74 ± 0.20 | Effect on osteoblast differentiation, in words [2]: activated osteoblast differentiation significantly; also recorded: activate both bone formation and osteoblast differentiation | Relative specific activities of intracellular alkaline phosphatase, Mean ± SD [2, 4]: 1.05 ± 0.17 | Relative specific activities of intracellular alkaline phosphatase, replicates 1-8 [2, 4]: 0.95 and 1.04 and 0.98 | Relative specific activities of intracellular alkaline phosphatase, Mean ± SD [2, 5]: 1.15 ± 0.13 | Relative specific activities of intracellular alkaline phosphatase, replicates 1-4 [2, 5]: 0.98 and 1.29 and 1.19 and 1.12 | Relative specific activities or intracellular alkaline phosphatase, Mean ± SD [2]: 1.14 ± 0.22 | Relative specific activities or intracellular alkaline phosphatase, replicates 1-6 [2]: 0.91 and 0.94 and 1.34 and 1.20 and 1.00 and 1.43 | Combined results on osteoblast differentiation (relative specific ALP activity), Mean ± SD [2]: 1.10 ± 0.18 (*) | Effect on bone formation activity of mature osteoblasts, in words [3]: activate both bone formation and osteoblast differentiation | Calcium deposition, Mean ± SD ([3]; first bone formation assay): 0.11 ± 0.11 mmol/L | Calcium deposition, replicates 1-6 ([3]; first bone formation assay): 0.04 mmol/L and 0.17 mmol/L and 0.01 mmol/L and 0.27 mmol/L and 0 mmol/L and 0.14 mmol/L | Calcium deposition, Mean ± SD [3, 6]: 0.00 ± 0.00 mmol/L | Calcium deposition, replicates 1-4 [3, 6]: 0 mmol/L | Calcium deposition, Mean ± SD ([3]; second bone formation assay): 0.08 ± 0.11 mmol/L | Calcium deposition, replicates 1-8 ([3]; second bone formation assay): 0 mmol/L (4×) and 0.28 mmol/L and 0.14 mmol/L | Combined results on bone formation activity of mature osteoblasts (calcium released), Mean ± SD [3]: 0.09 ± 0.10 mmol/L

O.O.O.O.O=C([O-])[O-].O=C([O-])[O-].O=C([O-])[O-].[La+3].[La+3] [LA 500, lanthanum carbonate tetrahydrate]
Effect on bone resorption / bone resorbing activity of mature osteoclasts, in words ([1]; LA number = ng/ml lanthanum, lanthanum (III) ion = any of the concentrations tested (100-15000 ng/ml), bafilomycin Al 10 nM): dose-dependent inhibition of bone resorption | Relative medium CrossLaps amounts per osteoclast, replicates 1-6 [1]: 1.04 and 0.58 and 1.38 and 0.75 and 0.88 and 0.63 | Relative medium CrossLaps amounts per osteoclast, Mean ± SD ([1]; LA number = ng/ml lanthanum): 0.88 ± 0.30 | Relative medium CrossLaps amounts per osteoclasts, Mean ± SD ([1]; LA number = ng/ml lanthanum): 0.88 ± 0.65 | Relative medium CrossLaps amounts per osteoclasts, replicates 1-6 ([1]; LA number = ng/ml lanthanum): 0.50 (2×) and 2.14 and 1.03 and 0.47 and 0.63 | Combined results on bone resorption (relative medium CrossLaps per osteoclast), Mean ± SD ([1]; LA number = ng/ml lanthanum): 0.88 ± 0.48 | Effect on osteoblast differentiation, in words [2]: No significant response; also recorded: do not decrease the formulation of osteoblasts | Relative specific activities of intracellular alkaline phosphatase, Mean ± SD [2, 4]: 0.90 ± 0.14 | Relative specific activities of intracellular alkaline phosphatase, replicates 1-8 [2, 4]: 0.95 and 0.96 and 0.62 | Relative specific activities of intracellular alkaline phosphatase, Mean ± SD [2, 5]: 1.01 ± 0.07 | Relative specific activities of intracellular alkaline phosphatase, replicates 1-4 [2, 5]: 0.96 and 0.98 and 0.99 and 1.11 | Relative specific activities or intracellular alkaline phosphatase, Mean ± SD [2]: 0.93 ± 0.14 | Relative specific activities or intracellular alkaline phosphatase, replicates 1-6 [2]: 0.88 and 0.89 and 1.10 and 1.09 and 0.75 and 0.90 | Combined results on osteoblast differentiation (relative specific ALP activity), Mean ± SD [2]: 0.94 ± 0.13 | Effect on bone formation activity of mature osteoblasts, in words [3]: stimulate bone formation | Calcium deposition, Mean ± SD ([3]; first bone formation assay): 0.77 ± 0.54 mmol/L | Calcium deposition, replicates 1-6 ([3]; first bone formation assay): 0.44 mmol/L and 0.15 mmol/L and 1.32 mmol/L and 0.27 mmol/L and 1.31 mmol/L and 1.10 mmol/L | Calcium deposition, Mean ± SD [3, 6]: 0.02 ± 0.05 mmol/L | Calcium deposition, replicates 1-4 [3, 6]: 0 mmol/L (3×) and 0.09 mmol/L | Calcium deposition, Mean ± SD ([3]; second bone formation assay): 0.62 ± 0.61 mmol/L | Calcium deposition, replicates 1-8 ([3]; second bone formation assay): 0 mmol/L and 0.02 mmol/L and 0.46 mmol/L and 1.17 mmol/L | Combined results on bone formation activity of mature osteoblasts (calcium released), Mean ± SD [3]: 0.68 ± 0.56 mmol/L

— US7078059B2, “Treatment of bone diseases” (Shire Holdings AG, priority 2000, dated 2006)
